Data from US4028396A, “16,16-Spirocycloalkyl prostaglandin derivatives” (American Cyanamid Company, priority 1975, dated 1977).

Key:
[1] = tested on: bronchospasms elicited by 5-hydroxytryptamine; experiment: bronchodilator activity, Konzett procedure, 5-hydroxytryptamine bronchospasm; type: in vivo, guinea pigs; conditions: Cavia porcellus; three logarithmic cumulative intravenous doses; spasmogen 5-hydroxytryptamine
Description: (§1) The compounds of this invention are useful as bronchodilators for the treatment of asthma and chronic bronchitis. Bronchodilator activity is determined in guinea pigs against bronchospasms elicited by intravenous injections of 5-hydroxytryptamine, histamine or acetylcholine by the Konzett procedure. [See J. Lulling, P. Lievens, F. El Sayed and J. Prignot, Arzneimittel-Forschung, 18, 955 (1968).]
(§2) In Table A which follows bronchodilator activity for representative compounds of this invention against one or more of three spasmogenic agents is expressed as an ED50 determined from the results obtained with three logarithmic cumulative intravenous doses.

[2] = tested on: bronchospasms elicited by histamine; experiment: bronchodilator activity, Konzett procedure, histamine bronchospasm; type: in vivo, guinea pigs; conditions: Cavia porcellus; three logarithmic cumulative intravenous doses; spasmogen histamine
Description: as §1, §2

[3] = tested on: bronchospasms elicited by acetylcholine; experiment: bronchodilator activity, Konzett procedure, acetylcholine bronchospasm; type: in vivo, guinea pigs; conditions: Cavia porcellus; three logarithmic cumulative intravenous doses; spasmogen acetylcholine
Description: as §1, §2

[4] = tested on: basal gastric acid secretion; experiment: inhibition of gastric acid secretion in the acute gastric fistula rat; type: in vivo, Female Sprague-Dawley rats; conditions: 10 mg./kg., intraduodenal
Description: The compounds of this invention are also useful as inhibitors of gastric acid secretion and peptic ulcer formation and may be used for the treatment of gastric hyperacidity, gastric erosion, and peptic ulcer. Inhibition of basal gastric acid secretion can be determined by the following procedure.
Female Sprague-Dawley rats weighing 140-160 grams are fasted in individual cages for 18-24 hours. The rats are then lightly anesthetized with ether and their front teeth extracted to avoid destruction of the plastic cannula. A midline incision is then made and the stomach and duodenum exposed. A flanged polyvinyl tube is inserted into the fundic portion of the stomach and secured with a purse string suture line using 4-0 Mersilene. The rat is then dosed by injection of the compound into the duodenum (1.0 ml. per 100 gram body weight). After dosing, the abdominal wall and skin are closed using metal wound clips. The rat is replaced in a cage containing a longitudinal slit to allow the polyvinyl tube to hang freely. An 8 ml. plastic collecting tube is attached to the flanged cannula and hangs freely below the cage. The first 30 minute sample is discarded designating this time as zero. The collecting tube is attached again and samples removed at the end of 60 and 120 minutes. The hourly samples are then transferred to a 15 ml. centrifuge and centrifuged for 5-10 minutes. Total and sediment volume are then recorded with supernatant volume being used as volume of secretion. A 1 ml. or less aliquot is then removed and placed in a 50 ml. beaker containing 10 ml. of distilled water. This sample is then titrated using 0.01N NaOH to pH 7.0 using a Beckman zeromatic pH meter. Volume, tritratable acidity (meq/L) and total acid output (ueg/hour) are recorded. Percent inhibition is determined by comparison with the appropriate control. Groups of three rats were used for preliminary testing, and groups of six rates were used for dose-response evaluations. All compounds are administered in a vehicle consisting of 0.5% methocel, 0.4% tween 80, and saline at a constant volume of 1 ml./100 gram rat. Samples are dispersed by sonification. Percent inhibition is calculated on basis of concurrent vehicle control.
In Table B which follows is given the effect on total acid output after 60 minutes (response A) and 120 minutes (response B) for various doses of representative compounds of this invention.

[5] = tested on: basal gastric acid secretion; experiment: as above; type: in vivo, Female Sprague-Dawley rats; conditions: oral
[6] = tested on: gastric acid output stimulated by gastrin tetrapeptide; experiment: gastric fistula dog, gastric acid output stimulated by gastrin tetrapeptide; type: in vivo; conditions: oral, 0.16 mg./kg., % of the control output
Description: (§3) With the former agent a dose of 0.16 mg./kg. is sufficient to inhibit more than 50% of the control output.

[7] = tested on: gastric acid output stimulated by histamine; experiment: gastric fistula dog, gastric acid output stimulated by histamine; type: in vivo; conditions: oral
Description: as §3

smooth muscle = conditions: cited from earlier work
[8] = tested on: systemic arterial blood pressure; conditions: in vivo; cited from earlier work
[9] = tested on: mobilization of free fatty acids; conditions: cited from earlier work
[10] = cited from earlier work

Row | SMILES | ED50 [1] | ED50 [2] | ED50 [3] | %-Inhibition of Total Acid Output ([4]; after 60 min.) | %-Inhibition of Total Acid Output ([4]; after 120 min.) | %-Inhibition of Total Acid Output ([5]; 10 mg./kg., after 60 min.) | %-Inhibition of Total Acid Output ([5]; 10 mg./kg., after 120 min.) | other results
1 | CCCCC1([C@@H](O)/C=C/[C@H]2CCC(=O)[C@@H]2CCCCCCC(=O)O)CCC1 (relative stereo) [9-oxo-15-epi-hydroxy-16,16-trimethylene-13-trans-prostenoic acid] | 0.135 mg/kg | 0.014 mg/kg | 0.003 mg/kg | 98% | 92% | 85% | 61% | –
2 | CCCCC1([C@H](O)/C=C/[C@H]2CCC(=O)[C@@H]2CCCCCCC(=O)O)CCC1 (relative stereo) [9-oxo-15-hydroxy-16,16-trimethylene-13-trans-prostenoic acid] | 0.02 mg/kg | 0.0024 mg/kg | 0.048 mg/kg | 98% | 75% | – | – | %-Inhibition of Total Acid Output ([5]; 2.5 mg./kg., after 60 min.): 86%; %-Inhibition of Total Acid Output ([5]; 2.5 mg./kg., after 120 min.): 83%
3 | CCCCC1([C@H](O)/C=C/[C@H]2[C@H](O)CC(=O)[C@@H]2C/C=C\CCCC(=O)O)CCC1 (relative stereo) [11α,15-dihydroxy-9-oxo-16,16-trimethylene-5-cis,13-trans-prostadienoic acid] | 0.0025 mg/kg | 0.0015 mg/kg | 0.0011 mg/kg | 100% | 100% | 100% | 100% | inhibition of gastric acid output stimulated by gastrin tetrapeptide [6]: more than 50%; inhibition of the stimulation of gastric acid output by histamine [7]: will inhibit the stimulation of gastric acid output; %-Inhibition of Total Acid Output ([5]; 0.63 mg./kg., after 60 min.): 30%; %-Inhibition of Total Acid Output ([5]; 0.63 mg./kg., after 120 min.): 35%; %-Inhibition of Total Acid Output ([5]; 1.25 mg./kg., after 60 min.): 40%; %-Inhibition of Total Acid Output ([5]; 1.25 mg./kg., after 120 min.): 36%; %-Inhibition of Total Acid Output ([5]; 2.5 mg./kg., after 60 min.): 87%; %-Inhibition of Total Acid Output ([5]; 2.5 mg./kg., after 120 min.): 74%
4 | CCCCC1([C@@H](O)/C=C/[C@H]2[C@H](O)CC(=O)[C@@H]2C/C=C\CCCC(=O)O)CCC1 (relative stereo) [11α,15-epi-dihydroxy-9-oxo-16,16-trimethylene-5-cis,13-trans-prostadienoic acid] | 0.305 mg/kg | 0.048 mg/kg | 0.032 mg/kg | 98% | 86% | 32% | 39% | –
5 | CCCCC1([C@@H](O)/C=C/[C@H]2CCC(=O)[C@@H]2CCCCCCC(=O)OCC)CCC1 (relative stereo) [ethyl 15-epi-hydroxy-9-oxo-16,16-trimethylene-13-trans-prostenoate] | – | – | – | 98% | 87% | 77% | 67% | –
6 | CCCCC1([C@H](O)/C=C/[C@H]2CCC(=O)[C@@H]2CCCCCCC(=O)OCC)CCC1 (relative stereo) [ethyl 15-hydroxy-9-oxo-16,16-trimethylene-13-trans-prostenoate] | – | – | – | 100% | 100% | 48% | 38% | –
7 | CCCCC[C@H](O)/C=C/[C@H]1[C@H](O)CC(=O)[C@@H]1CCCCCCC(=O)O [PGE1] | – | – | – | – | – | – | – | potency in causing smooth muscle stimulation (smooth muscle): extremely potent; potency in causing vasodepression [8]: extremely potent; potency as antilipolytic agent [9]: potent
8 | CCCCC[C@H](O)/C=C/[C@H]1[C@H](O)CC(=O)[C@@H]1C/C=C\CCCC(=O)O [prostaglandin E2] | – | – | – | – | – | – | – | time within which the solution must be used ([10]; room temperature): one day; time within which saline solution should preferably be used ([10]; saline solution stored at 40° C. (so in the source), preferably): 2 to 3 days; time within which saline solution should be used ([10]; saline solution stored at 40° C. (so in the source)): a week; decrease in biological activity on storage ([10]; ten days storage at 4° C., concentration 100 mg./ml.): significant decrease; potency in causing smooth muscle stimulation (smooth muscle): extremely potent; potency in causing vasodepression [8]: extremely potent; potency as antilipolytic agent [9]: potent
